The structures appear in SMILES notation. Like-named read-outs stand apart in the source and are kept apart here.

Data set [1] in a line: Phase II trial: adverse events (CTCAE v3.0). In kind it is in vivo, human. Here is the method: Ang-(1-7) was administered by subcutaneous injection once daily continuously. One cycle was defined as a 21-day period. Toxicities were assessed weekly during the first cycle and on the first day of each subsequent cycle. In the absence of unacceptable treatment-related toxicity, patients continued treatment until disease progression.
Two dose cohorts were planned. In the first cohort, twenty patients were treated at a dose of 20 mg daily which is similar to the weight-based dose of 400 mcg/kg identified as the MTD in the phase I study. Unlike the phase I study, this study utilized continuous daily dosing rather than five days every three weeks. A planned interim safety evaluation was performed after the enrollment of 10 patients in the first cohort. […] Patients in this cohort would have received Ang-(1-7) at a dose of 10 mg daily if excessive toxicities had been observed in the 20 mg cohort. Safety events that would trigger dose deescalation included 3 strokes in any cohort or other evidence of excessive toxicity.
Tumor measurements were performed using RECIST version 1.1 prior to initiation of treatment and then every two cycles until disease progression or unacceptable toxicity. Toxicities were graded using the Common Terminology Criteria for Adverse Events, version 3.0. […]

The nature of data set [2]: Plasma Ang-(1-7) concentration, radioimmunoassay. As to conditions: human, sc, median, RIA, P < 0.05 vs baseline. In kind it is in vivo. Here is the method:
In the phase I trial, statistically significant changes in PlGF concentrations were identified 4 hours after the first Ang-(1-7) injection. To prospectively evaluate this biomarker, PlGF levels as well as VEGF, Ang-(1-7), Ang II, and Ang I were measured prior to the first dose, 4 hours after the first dose, and after 21 days of treatment in the phase II trial. Blood samples were immediately placed on ice and processed within 30 minutes of collection. For the angiotensin peptides, blood was taken in an EDTA containing tube with a cocktail of inhibitors to prevent in vitro generation or degradation of peptides, as previously described. Plasma samples were stored at −80°C. Concentrations of Ang-(1-7) (developed by laboratory), Ang II (Alpco, Windham, NH), and Ang I (Peninsula, San Carlos, CA) were measured by the Hypertension Core Facility of Wake Forest University using three established radioimmunoassay methods. Aliquots of plasma from the same time points were assayed by Aushon Biosystems (Billerica, MA) using Searchlight ELISA technology to quantify circulating vascular endothelial growth factor (VEGF) and placental growth factor (PlGF). […]
The study was designed with 87% power to detect a response rate by RECIST criteria of 10% in the study population. […] Levels of biomarker expression over time were evaluated using nonparametric, Wilcoxon signed rank tests. […]

For data set [3] the following is noted: phase I, ref [16], cited from earlier work. The source says:
A phase I trial using subcutaneous administration of Ang-(1-7) for the treatment of patients with advanced solid tumors was previously reported. This study evaluated the maximum tolerated dose (MTD), toxicities, and pharmacokinetics of Ang-(1-7) when given subcutaneously once daily for five consecutive days on a 21-day cycle. This study identified 400 mcg/kg as the MTD for this schedule.

As for `CC[C@H](C)[C@H](NC(=O)[C@H](Cc1ccc(O)cc1)NC(=O)[C@@H](NC(=O)[C@H](CCCNC(=N)N)NC(=O)[C@@H](N)CC(=O)O)C(C)C)C(=O)N[C@@H](Cc1c[nH]cn1)C(=O)N1CCC[C@H]1C(=O)O` [Ang-(1-7), Angiotensin-(1-7)], the “deaths on study or within 30 days of completing treatment” value in data set [1] (20 patients, all attributed to progressive cancer, felt unrelated to treatment) is “Three”. In data set [1] (in vivo), the pregnancy outcome is reported as “delivered a healthy child”. The level at 4 h in data set [2] (4 hours after first dose, 20 mg s.c.) is 0.0611 ng/mL. Also, the level at 528 h in data set [2] (day 22, 20 mg daily s.c.) was 0.0412 ng/mL. Further, the “serious adverse event at least possibly related” value in data set [3] (400 mcg/kg dose level) is reported as “deep vein thrombosis”; in data set [3] (700 mcg/kg dose level (first event named)) it was “stroke”; in data set [3] (700 mcg/kg dose level (second event named)), “cranial neuropathy”. For the same molecule, the “half-life at the MTD” value in data set [3] (400 mcg/kg s.c., considerable intra- and interpatient variability) is 36 min. Moreover, the “maximum tolerated dose (MTD)” value in data set [3] (s.c. once daily for five consecutive days on a 21-day cycle, advanced solid tumors) is 0.4 mg/kg.

Broadly, the half-life is how long it takes for the measured level to halve.

These data come from PMC5118533, “Phase II Trial of Angiotensin-(1-7) for the Treatment of Patients with Metastatic Sarcoma” (Sarcoma, 2016).
